Literature values in US20250339472A1 (priority 2024, published 2025).
Where two headings read alike, the source gives them in different places.

Key:
[1] = dog, in vivo
[2] = molecular target: acetylcholinesterase (Homo sapiens, UniProt P22303)
Sequence of acetylcholinesterase (P22303 32-614, species assumed): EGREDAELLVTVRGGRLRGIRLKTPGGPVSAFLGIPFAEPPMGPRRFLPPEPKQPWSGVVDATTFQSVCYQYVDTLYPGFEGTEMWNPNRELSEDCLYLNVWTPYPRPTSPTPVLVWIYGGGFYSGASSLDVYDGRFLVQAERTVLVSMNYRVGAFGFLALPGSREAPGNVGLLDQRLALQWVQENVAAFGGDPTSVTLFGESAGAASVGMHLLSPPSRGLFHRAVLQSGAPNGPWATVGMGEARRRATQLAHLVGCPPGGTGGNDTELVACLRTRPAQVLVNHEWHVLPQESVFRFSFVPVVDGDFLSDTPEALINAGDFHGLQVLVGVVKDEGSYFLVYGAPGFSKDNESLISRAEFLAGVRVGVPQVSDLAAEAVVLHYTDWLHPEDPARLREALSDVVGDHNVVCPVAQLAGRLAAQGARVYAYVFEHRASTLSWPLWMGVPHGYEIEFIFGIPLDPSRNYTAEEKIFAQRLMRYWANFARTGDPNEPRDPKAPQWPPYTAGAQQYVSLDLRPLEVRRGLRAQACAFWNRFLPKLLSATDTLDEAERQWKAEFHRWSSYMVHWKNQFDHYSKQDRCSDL

For CC1=C(/C=C/C(C)=C/C=C/C(C)=C/C=C/C=C(C)/C=C/C=C(C)/C=C/C2=C(C)C(=O)[C@@H](O)CC2(C)C)C(C)(C)C[C@H](O)C1=O [Astaxanthin—AstaReal®, Astaxanthin], the efficacy levels [1] is given as 0.3 mg/kg/day.
For COc1cc(/C=C/C(=O)CC(=O)/C=C/c2ccc(O)c(OC)c2)ccc1O [Curcumin], the “inhibition of acetylcholinesterase activity” value [2] is given as “inhibits”.
For Hyaluronic Acid, the Safety levels (more than 26 kg body weight) is given as 54 mg of HA per day and the Safety levels (up to 26 kg body weight) is given as 27 mg of HA per day.
